Where “and” joins values, the source holds several entries; their conditions need not be identical. Identical values can stand only once. Inconclusive results and toxic doses are left out. Cut-off read from the data, not from the text of the source: active = T/C of 150% or more; inactive = T/C below 125%.
System: L1210 leukemia ip in BDF1 mice, survival T/C
Assay: NCI In Vivo Anticancer Drug Screen. Data for tumor model L1210 Leukemia (intraperitoneal) in B6D2F1 (BDF1) mice
Conditions: endpoint: mean survival time, higher = longer survival
Method in brief: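 Ratio derived from survival: compound-dosed mice over vehicle-dosed mice, all bearing a transplantable tumor.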

[1] = dose: 200.0 mg/kg/injection, schedule: Q04DX003 (ip), vehicle: saline with Tween-80
[2] = dose: 400.0 mg/kg/injection, schedule: Q04DX003 (ip), vehicle: saline with Tween-80
[3] = dose: 100.0 mg/kg/injection, schedule: Q01DX001 (ip), vehicle: carboxymethylcellulose (CMC)
[4] = dose: 200.0 mg/kg/injection, schedule: Q01DX001 (ip), vehicle: carboxymethylcellulose (CMC)
[5] = dose: 400.0 mg/kg/injection, schedule: Q01DX001 (ip), vehicle: carboxymethylcellulose (CMC)
[6] = dose: 25.0 mg/kg/injection, schedule: Q01DX009 (ip), vehicle: saline
[7] = dose: 25.0 mg/kg/injection, schedule: Q04DX003 (ip), vehicle: saline
[8] = dose: 50.0 mg/kg/injection, schedule: Q01DX009 (ip), vehicle: saline
[9] = dose: 50.0 mg/kg/injection, schedule: Q04DX003 (ip), vehicle: saline
[10] = dose: 100.0 mg/kg/injection, schedule: Q04DX003 (ip), vehicle: saline with Tween-80
[11] = dose: 100.0 mg/kg/injection, schedule: Q04DX003 (ip), vehicle: saline
[12] = dose: 200.0 mg/kg/injection, schedule: Q04DX003 (ip), vehicle: saline
[13] = dose: 400.0 mg/kg/injection, schedule: Q04DX003 (ip), vehicle: saline
[14] = dose: 50.0 mg/kg/injection, schedule: Q01DX001 (ip), vehicle: carboxymethylcellulose (CMC)

Measured: T/C

C[Si](C)(C)C(c1ccccc1)(c1ccccc1)c1ccccc1
inactive: dose: 25.6 mg/kg/injection, schedule: Q04DX002 (ip), vehicle: saline with Tween-80 101 % of control | dose: 64.0 mg/kg/injection, schedule: Q04DX002 (ip), vehicle: saline with Tween-80 90 % of control | [1] 87 % of control | dose: 400.0 mg/kg/injection, schedule: Q04DX002 (ip), vehicle: saline with Tween-80 90 % of control | [2] 88 % of control

NC(N)=N/N=C/c1ccccn1
inactive: dose: 15.0 mg/kg/injection, schedule: Q01DX Z (ip), vehicle: saline 94 % of control | dose: 30.0 mg/kg/injection, schedule: Q01DX Z (ip), vehicle: saline 102 % of control | dose: 60.0 mg/kg/injection, schedule: Q01DX Z (ip), vehicle: saline 95 % of control and 101 % of control | dose: 60.0 mg/kg/injection, schedule: Q01DX Z (oral), vehicle: saline 103 % of control | dose: 120.0 mg/kg/injection, schedule: Q01DX Z (ip), vehicle: saline 96 % of control and 98 % of control | dose: 120.0 mg/kg/injection, schedule: Q01DX Z (oral), vehicle: saline 108 % of control | dose: 240.0 mg/kg/injection, schedule: Q01DX Z (oral), vehicle: saline 103 % of control | dose: 480.0 mg/kg/injection, schedule: Q01DX Z (oral), vehicle: saline 107 % of control

CC(=O)O[C@H]1C[C@@]2(C)[C@@H](C[C@@H](O)[C@H]3[C@@]4(C)CC[C@@H](O)[C@@H](C)[C@@H]4CC[C@@]32C)/C1=C(\CCC=C(C)C)C(=O)O
inactive: dose: 50.0 mg/kg/injection, schedule: Q01DX009 (sc), vehicle: steriod suspending solution 95 % of control | [3] 97 % of control | dose: 100.0 mg/kg/injection, schedule: Q01DX009 (sc), vehicle: steriod suspending solution 95 % of control | dose: 100.0 mg/kg/injection, schedule: Q04DX003 (ip), vehicle: steriod suspending solution 102 % of control | [4] 94 % of control | dose: 200.0 mg/kg/injection, schedule: Q01DX009 (sc), vehicle: steriod suspending solution 103 % of control | dose: 200.0 mg/kg/injection, schedule: Q04DX003 (ip), vehicle: steriod suspending solution 102 % of control | [5] 90 % of control | dose: 400.0 mg/kg/injection, schedule: Q04DX003 (ip), vehicle: steriod suspending solution 101 % of control

C/C(=N/O)c1ccc2c(c1)Cc1ccccc1-2
inactive: [3] 105 % of control | [4] 100 % of control | [5] 98 % of control

CCOC(=O)COc1cc(Cl)ccn1
inactive: dose: 100.0 mg/kg/injection, schedule: Q04DX002 (ip), vehicle: Klucel (hydroxypropylcellulose) (HPC) 110 % of control | dose: 200.0 mg/kg/injection, schedule: Q04DX002 (ip), vehicle: Klucel (hydroxypropylcellulose) (HPC) 104 % of control | dose: 400.0 mg/kg/injection, schedule: Q04DX002 (ip), vehicle: Klucel (hydroxypropylcellulose) (HPC) 104 % of control

O=C1OC(c2ccc([N+](=O)[O-])cc2)=N/C1=C\C=C\c1ccccc1
inactive: dose: 100.0 mg/kg/injection, schedule: Q01DX009 (ip), vehicle: Klucel (hydroxypropylcellulose) (HPC) 98 % of control | dose: 200.0 mg/kg/injection, schedule: Q01DX009 (ip), vehicle: Klucel (hydroxypropylcellulose) (HPC) 96 % of control | dose: 400.0 mg/kg/injection, schedule: Q01DX009 (ip), vehicle: Klucel (hydroxypropylcellulose) (HPC) 103 % of control

NCC1CCCCC1
inactive: dose: 6.25 mg/kg/injection, schedule: Q01DX009 (ip), vehicle: saline 107 % of control | dose: 12.0 mg/kg/injection, schedule: Q04DX003 (ip), vehicle: saline 98 % of control | dose: 12.5 mg/kg/injection, schedule: Q01DX009 (ip), vehicle: saline 105 % of control | [6] 100 % of control | [7] 110 % of control | [8] 88 % of control | [9] 104 % of control

CSCCNC(=O)CS(=O)(=O)c1ccc(N)cc1
inactive: [10] 97 % of control | [1] 97 % of control | [2] 97 % of control

COc1cc(C(=O)OC(C)CN2CCN(C(=O)c3cc(OC)c(OC)c(OC)c3)CC2)cc(OC)c1OC (centres undefined)
inactive: [6] 108 % of control | [7] 98 % of control | [8] 101 % of control | [9] 95 % of control | dose: 100.0 mg/kg/injection, schedule: Q01DX009 (ip), vehicle: saline 104 % of control | [11] 102 % of control | dose: 200.0 mg/kg/injection, schedule: Q01DX009 (ip), vehicle: saline 98 % of control | [12] 102 % of control | [13] 109 % of control

Nc1ccc(N)c2c1C(=O)c1cccc([N+](=O)[O-])c1C2=O
inactive: [14] 101 % of control | [3] 97 % of control | [4] 95 % of control | [5] 95 % of control

CC(NC(=O)OCc1ccccc1)C(=O)NC(Cc1ccccc1)C(=O)OCc1ccccc1 (centres undefined)
inactive: [10] 95 % of control | [2] 91 % of control

NC(N)=NC(N)=Nc1ccc2c(Cl)c(Cl)ccc2c1
inactive: dose: 2.5 mg/kg/injection, schedule: Q01DX009 (ip), vehicle: saline sonified 92 % of control | dose: 5.0 mg/kg/injection, schedule: Q01DX009 (ip), vehicle: saline sonified 101 % of control | dose: 10.0 mg/kg/injection, schedule: Q01DX009 (ip), vehicle: saline sonified 101 % of control | dose: 12.5 mg/kg/injection, schedule: Q04DX003 (ip), vehicle: saline with Tween-80 105 % of control | dose: 25.0 mg/kg/injection, schedule: Q04DX003 (ip), vehicle: saline with Tween-80 114 % of control | dose: 50.0 mg/kg/injection, schedule: Q04DX003 (ip), vehicle: saline with Tween-80 100 % of control | dose: 100.0 mg/kg/injection, schedule: Q04DX003 (ip), vehicle: saline sonified 101 % of control

NC(=S)N/N=C/c1ccc(O)c(C(=O)O)c1
inactive: dose: 15.0 mg/kg/injection, schedule: Q01DX Z (ip), vehicle: methylcellulose (MC) 97 % of control | dose: 30.0 mg/kg/injection, schedule: Q01DX Z (ip), vehicle: methylcellulose (MC) 95 % of control | dose: 60.0 mg/kg/injection, schedule: Q01DX Z (ip), vehicle: methylcellulose (MC) 95 % of control | dose: 120.0 mg/kg/injection, schedule: Q01DX Z (ip), vehicle: methylcellulose (MC) 97 % of control | dose: 250.0 mg/kg/injection, schedule: Q01DX Z (ip), vehicle: methylcellulose (MC) 91 % of control | dose: 375.0 mg/kg/injection, schedule: Q01DX Z (ip), vehicle: methylcellulose (MC) 89 % of control

NC(=O)c1ccc[n+](CC(=O)NCc2ccc(Cl)cc2)c1
inactive: [11] 93 % of control

Cn1c(C(Cl)Cl)nc2ccccc2c1=O
inactive: [14] 106 % of control | [3] 106 % of control | [4] 106 % of control | [5] 97 % of control

COc1cc2ccc(CC(N)=O)cc2cc1OC
inactive: [11] 100 % of control | [12] 97 % of control | [13] 98 % of control

CCCCNC(=O)NS(=O)(=O)c1ccc(C)cc1
inactive: dose: 100.0 mg/kg/injection, schedule: Q01DX001 (ip), vehicle: Klucel (hydroxypropylcellulose) (HPC) 96 % of control | dose: 200.0 mg/kg/injection, schedule: Q01DX001 (ip), vehicle: Klucel (hydroxypropylcellulose) (HPC) 96 % of control | dose: 400.0 mg/kg/injection, schedule: Q01DX001 (ip), vehicle: Klucel (hydroxypropylcellulose) (HPC) 89 % of control

O=C(O)CCN1CCN(c2cccc(Cl)c2)CC1
inactive: dose: 100.0 mg/kg/injection, schedule: Q01DX001 (ip), vehicle: saline 96 % of control | dose: 200.0 mg/kg/injection, schedule: Q01DX001 (ip), vehicle: saline 95 % of control

Cc1ccc2[nH]c(=S)n(-c3ccc(Cl)cc3)c(=O)c2c1
inactive: dose: 100.0 mg/kg/injection, schedule: Q04DX003 (ip), vehicle: carboxymethylcellulose (CMC) 97 % of control | dose: 200.0 mg/kg/injection, schedule: Q04DX003 (ip), vehicle: carboxymethylcellulose (CMC) 88 % of control | dose: 400.0 mg/kg/injection, schedule: Q04DX003 (ip), vehicle: carboxymethylcellulose (CMC) 93 % of control

NN1C(=O)c2c(Cl)c(Cl)c(Cl)c(Cl)c2C1=O
inactive: dose: 100.0 mg/kg/injection, schedule: Q01DX001 (ip), vehicle: saline with Tween-80 87 % of control | dose: 200.0 mg/kg/injection, schedule: Q01DX001 (ip), vehicle: saline with Tween-80 87 % of control | dose: 400.0 mg/kg/injection, schedule: Q01DX001 (ip), vehicle: saline with Tween-80 93 % of control

Cc1nc(N)[nH]c(=O)c1CC(C)O (centres undefined)
inactive: [11] 92 % of control | [12] 100 % of control | [13] 92 % of control

COc1ccccc1-n1c(O)c(N=Nc2ccccc2)c(=O)n(-c2ccc(Br)cc2)c1=S
inactive: [10] 106 % of control | [1] 100 % of control | [2] 94 % of control

Source: PubChem BioAssay AID248 (DTP/NCI, 2004)
